target: not listed separately; test: Inhibition of H+/K+ATPase in pig gastric microsome assessed as liberation of inorganic phosphate using ATP; format: microsomes, Sus scrofa, Stomach; details: not given

Row | Structure (SMILES) | IC50 [µM]
1 | COc1ccc2[nH]c([S+]([O-])Cc3ncc(C)c(OC)c3C)nc2c1 (stereo unspecified) [OMEPRAZOLE] | 18
2 | COCCCOc1ccnc(C[S+]([O-])c2nc3ccccc3[nH]2)c1C (stereo unspecified) [RABEPRAZOLE SODIUM] | 1.5
3 | CCCN(CCC)c1cc2nc([S+]([O-])Cc3ncc(C)c(OC)c3C)[nH]c2cc1NC(C)=O (stereo unspecified) | 16

organism: Sus scrofa; test: Inhibition of H+/K+ATPase in pig gastric microsome assessed as liberation of inorganic phosphate using ATP at 10 uM relative to control; format: microsomes; details: Stomach

Row | Structure (SMILES) | inhibition [%]
4 | COc1c(C)cnc(C[S+]([O-])c2nc3cc(Oc4ccccc4)c(NC(C)=O)cc3[nH]2)c1C (stereo unspecified) | 37
5 | COc1cc2nc([S+]([O-])Cc3nccc(OC)c3OC)[nH]c2cc1NC(C)=O (stereo unspecified) | 4
6 | COCCCOc1ccnc(C[S+]([O-])c2nc3ccccc3[nH]2)c1C (stereo unspecified) [RABEPRAZOLE SODIUM] | 90
7 | CCOC(=O)N1CCN(c2cc3nc([S+]([O-])Cc4ncc(C)c(OC)c4C)[nH]c3cc2NC(C)=O)CC1 (stereo unspecified) | 15
8 | COc1c(C)cnc(C[S+]([O-])c2nc3cc(Oc4ccc5c(c4)OCO5)c(NC(C)=O)cc3[nH]2)c1C (stereo unspecified) | 35
9 | COc1ccnc(C[S+]([O-])c2nc3cc(N4CCCCC4)c(NC(=O)C4CC4)cc3[nH]2)c1OC (stereo unspecified) | 32
10 | CCOC(=O)N1CCN(c2cc3nc([S+]([O-])Cc4nccc(OC)c4OC)[nH]c3cc2NC(C)=O)CC1 (stereo unspecified) | 17
11 | COc1c(C)cnc(C[S+]([O-])c2nc3cc(N4CCCCC4)c(NC(C)=O)cc3[nH]2)c1C (stereo unspecified) | 10
12 | COc1cc2nc([S+]([O-])Cc3nccc(OC)c3OC)[nH]c2cc1NC(=O)c1ccco1 (stereo unspecified) | 13
13 | COc1ccnc(C[S+]([O-])c2nc3cc(N4CCCCC4)c(NC(C)=O)cc3[nH]2)c1OC (stereo unspecified) | 8
14 | COc1c(C)cnc(C[S+]([O-])c2nc3cc(N4CCCCC4)c(NC(=O)COCc4ccccc4)cc3[nH]2)c1C (stereo unspecified) | 58
15 | COc1c(C)cnc(C[S+]([O-])c2nc3cc(N4CCCCC4)c(NC(=O)C(F)(F)F)cc3[nH]2)c1C (stereo unspecified) | 41
16 | COc1ccnc(C[S+]([O-])c2nc3cc(Oc4ccccc4)c(NC(C)=O)cc3[nH]2)c1OC (stereo unspecified) | 6
17 | COc1ccnc(C[S+]([O-])c2nc3cc(Oc4ccc5c(c4)OCO5)c(NC(C)=O)cc3[nH]2)c1OC (stereo unspecified) | 1
18 | CCCN(CCC)c1cc2nc([S+]([O-])Cc3ncc(C)c(OC)c3C)[nH]c2cc1NC(C)=O (stereo unspecified) | 62
19 | CCCN(CCC)c1cc2nc([S+]([O-])Cc3ncc(C)c(OC)c3C)[nH]c2cc1NC(=O)C1CC1 (stereo unspecified) | 33

Other lines, results leading:

Row | inhibition [%] | Structure (SMILES)
20 | 39 | COc1ccc2[nH]c([S+]([O-])Cc3ncc(C)c(OC)c3C)nc2c1 (stereo unspecified) [OMEPRAZOLE]
21 | 16 | COc1cc2nc([S+]([O-])Cc3ncc(C)c(OC)c3C)[nH]c2cc1NC(=O)C1CC1 (stereo unspecified)
22 | 18 | COc1c(C)cnc(C[S+]([O-])c2nc3cc(Oc4ccccc4)c(NC(=O)C4CC4)cc3[nH]2)c1C (stereo unspecified)
23 | 28 | CCCN(CCC)c1cc2nc([S+]([O-])Cc3nccc(OC)c3OC)[nH]c2cc1NC(C)=O (stereo unspecified)
24 | 10 | COc1c(C)cnc(C[S+]([O-])c2nc3cc(Oc4ccc5c(c4)OCO5)c(NC(=O)C4CC4)cc3[nH]2)c1C (stereo unspecified)
25 | 34 | COc1c(C)cnc(C[S+]([O-])c2nc3cc(N4CCCCC4)c(NC(=O)C4CC4)cc3[nH]2)c1C (stereo unspecified)
26 | 3 | CCCN(CCC)c1cc2nc([S+]([O-])Cc3ncc(C)c(OC)c3C)[nH]c2cc1NC(=O)C(F)(F)F (stereo unspecified)
27 | 32 | COc1ccnc(C[S+]([O-])c2nc3cc(N4CCCCC4)c(NC(=O)COCc4ccccc4)cc3[nH]2)c1OC (stereo unspecified)
28 | 9 | COc1ccnc(C[S+]([O-])c2nc3cc(Oc4ccccc4)c(NC(=O)c4ccco4)cc3[nH]2)c1OC (stereo unspecified)
29 | 39 | CCCN(CCC)c1cc2nc([S+]([O-])Cc3ncc(C)c(OC)c3C)[nH]c2cc1NC(=O)c1ccco1 (stereo unspecified)
30 | 0 | CCCN(CCC)c1cc2nc([S+]([O-])Cc3nccc(OC)c3OC)[nH]c2cc1NC(=O)c1ccco1 (stereo unspecified)
31 | 4 | COc1cc2nc([S+]([O-])Cc3ncc(C)c(OC)c3C)[nH]c2cc1NC(C)=O (stereo unspecified)
32 | 11 | CCCN(CCC)c1cc2nc([S+]([O-])Cc3nccc(OC)c3OC)[nH]c2cc1NC(=O)C1CC1 (stereo unspecified)
33 | 2 | COc1ccnc(C[S+]([O-])c2nc3cc(Oc4ccccc4)c(NC(=O)C4CC4)cc3[nH]2)c1OC (stereo unspecified)
34 | 0 | COc1ccnc(C[S+]([O-])c2nc3cc(Oc4ccc5c(c4)OCO5)c(NC(=O)C4CC4)cc3[nH]2)c1OC (stereo unspecified)
35 | 21 | CCOC(=O)N1CCN(c2cc3nc([S+]([O-])Cc4ncc(C)c(OC)c4C)[nH]c3cc2NC(=O)C2CC2)CC1 (stereo unspecified)
36 | 24 | CCCN(CCC)c1cc2nc([S+]([O-])Cc3nccc(OC)c3OC)[nH]c2cc1NC(=O)C(F)(F)F (stereo unspecified)
37 | 13 | COc1cc2nc([S+]([O-])Cc3ncc(C)c(OC)c3C)[nH]c2cc1NC(=O)c1ccco1 (stereo unspecified)
38 | 4 | CCOC(=O)N1CCN(c2cc3nc([S+]([O-])Cc4nccc(OC)c4OC)[nH]c3cc2NC(=O)C2CC2)CC1 (stereo unspecified)
39 | 48 | COc1c(C)cnc(C[S+]([O-])c2nc3cc(Oc4ccccc4)c(NC(=O)c4ccco4)cc3[nH]2)c1C (stereo unspecified)
40 | 38 | COc1ccnc(C[S+]([O-])c2nc3cc(N4CCCCC4)c(NC(=O)C(F)(F)F)cc3[nH]2)c1OC (stereo unspecified)
41 | 16 | COc1cc2nc([S+]([O-])Cc3nccc(OC)c3OC)[nH]c2cc1NC(=O)C1CC1 (stereo unspecified)

Reference: ChEMBL document CHEMBL1795223, “A reverse method for diversity introduction of benzimidazole to synthesize H(+)/K(+)-ATP enzyme inhibitors” (Bioorg Med Chem Lett, 2011)
